The assay has as its target T1, Recombinant human TPH1 (MBP tagged) (Homo sapiens, UniProt P17752).
T1 construct: cloning full length human TPH1 cDNA in to a bacterial pMAL-c5E expression vector; made in house; host or cells: E. coli BL21 (DE3)
T1 sequence (P17752 1-444): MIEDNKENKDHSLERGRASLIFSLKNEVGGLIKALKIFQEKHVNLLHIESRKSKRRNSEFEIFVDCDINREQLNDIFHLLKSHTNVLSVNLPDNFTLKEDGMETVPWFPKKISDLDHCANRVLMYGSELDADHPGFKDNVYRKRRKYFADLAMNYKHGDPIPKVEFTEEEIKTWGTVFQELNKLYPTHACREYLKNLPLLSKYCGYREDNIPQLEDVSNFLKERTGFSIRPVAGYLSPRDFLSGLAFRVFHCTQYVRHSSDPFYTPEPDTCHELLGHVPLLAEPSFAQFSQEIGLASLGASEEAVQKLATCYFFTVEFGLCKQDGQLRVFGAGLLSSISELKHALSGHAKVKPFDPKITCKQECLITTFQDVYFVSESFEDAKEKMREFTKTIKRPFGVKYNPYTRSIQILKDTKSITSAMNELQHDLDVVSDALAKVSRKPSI
Nature of the assay: TPH1 in vitro inhibition assay (kinetic fluorescence). The note with it: read-out: TPH1 Range (TPH1 inhibition IC50). The class given is biochemical. The method, boiled down: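 Final mix: 15 nM MBP-TPH1, 30 μM Trp, 36 μM 6-methyltetrahydropterin, 25 μM ferrous ammonium sulfate, 50 mM MES pH 7.1, 1% DMSO, room temperature.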

Some results are limits rather than exact numbers.

On to `Nc1nc(NCc2ccccc2N2CCCCC2)cc(N2CCC3(CC2)CN[C@H](C(=O)O)C3)n1` [Example 41a, (S)-8-(2-Amino-6-((2-(piperidin-1-yl)benzyl)amino)pyrimidin-4-yl)-2,8-diazaspiro[4.5]decane-3-carboxylic acid], for which the IC50 – broadly, the midpoint of a concentration-inhibition curve – was 0.3 to 3 µM.
In the case of `Nc1nc(NCc2c(Oc3ccccc3)cccc2N2CCCCC2)cc(N2CCC3(CC2)CN[C@H](C(=O)O)C3)n1` [Example 41b, (S)-8-(2-amino-6-((2-phenoxy-6-(piperidin-1-yl)benzyl)amino)pyrimidin-4-yl)-2,8-diazaspiro[4.5]decane-3-carboxylic acid] it was 0.3 to 3 µM; in that of `Nc1nc(NCC23CC4CC(CC(C4)C2)C3)cc(N2CCC3(CC2)CN[C@H](C(=O)O)C3)n1` [Example 41c, (3S)-8-(6-(((3S,5S)-adamantan-1-ylmethyl)amino)-2-aminopyrimidin-4-yl)-2,8-diazaspiro[4.5]decane-3-carboxylic acid], 3 to 10 µM; in that of `CC(Nc1cc(N2CCC3(CC2)CN[C@H](C(=O)O)C3)nc(N)n1)C12CC3CC(CC(C3)C1)C2` (stereo partly drawn) [Example 41d, (3S)-8-(6-((1-((1R,3S,5S)-adamantan-1-yl)ethyl)amino)-2-aminopyrimidin-4-yl)-2,8-diazaspiro[4.5]decane-3-carboxylic acid], 3 to 10 µM.
On to `Nc1nc(O[C@H](c2ccccc2-c2cccc(Cl)c2)C(F)(F)F)cc(N2CCC3(CC2)CN[C@H](C(=O)O)C3)n1` [Example 42a, (S)-8-(2-amino-6-((R)-1-(3′-chloro-[1,1′-biphenyl]-2-yl)-2,2,2-trifluoroethoxy)pyrimidin-4-yl)-2,8-diazaspiro[4.5]decane-3-carboxylic acid], for which the IC50 is less than 0.05 µM.
Take `Nc1nc(O[C@H](c2ccccc2-c2cccc(F)c2)C(F)(F)F)cc(N2CCC3(CC2)CN[C@H](C(=O)O)C3)n1` [Example 42b, (S)-8-(2-amino-6-((R)-2,2,2-trifluoro-1-(3′-fluoro-[1,1′-biphenyl]-2-yl)ethoxy)pyrimidin-4-yl)-2,8-diazaspiro[4.5]decane-3-carboxylic acid]: the 50% inhibitory concentration (IC50) lay in the range of 0.05 to 0.3 µM.
The value for `Cc1ccn(-c2cc(Cl)ccc2[C@@H](Oc2cnnc(N3CCC4(CC3)CN[C@H](C(=O)O)C4)c2)C(F)(F)F)n1` [Example 43, (S)-8-(5-((R)-1-(4-chloro-2-(3-methyl-H-pyrazol-1-yl)phenyl)-2,2,2-trifluoroethoxy)pyridazin-3-yl)-2,8-diazaspiro[4.5]decane-3-carboxylic acid] was 3 to 10 µM; that for `Cc1ccn(-c2ccccc2[C@@H](Oc2ccnc(N3CCC4(CC3)CN[C@H](C(=O)O)C4)c2)C(F)(F)F)n1` [Example 44, (S)-8-(4-((R)-2,2,2-trifluoro-1-(2-(3-methyl-1H-pyrazol-1-yl)phenyl)ethoxy)pyridin-2-yl)-2,8-diazaspiro[4.5]decane-3-carboxylic acid] was 0.3 to 3 µM.
The value for `Cc1ccn(-c2cc(Cl)ccc2[C@@H](Oc2ccnc(N3CCC4(CC3)CN[C@H](C(=O)O)C4)c2)C(F)(F)F)n1` [Example 45, (S)-8-(4-((R)-1-(4-chloro-2-(3-methyl-H-pyrazol-1-yl)phenyl)-2,2,2-trifluoroethoxy)pyridin-2-yl)-2,8-diazaspiro[4.5]decane-3-carboxylic acid] was 0.05 to 0.3 µM; that for `Cc1ccn(-c2cc(Cl)ccc2[C@@H](Oc2cc(Oc3ccccc3)nc(N3CCC4(CC3)CNC(C(=O)O)C4)n2)C(F)(F)F)n1` (stereo partly drawn) [Example 46, 8-(4-((R)-1-(4-chloro-2-(3-methyl-H-pyrazol-1-yl)phenyl)-2,2,2-trifluoroethoxy)-6-phenoxypyrimidin-2-yl)-2,8-diazaspiro[4.5]decane-3-carboxylic acid] was 3 to 10 µM; that for `Nc1nc(OC(c2c(Br)cccc2Br)C(F)(F)F)cc(N2CCC3(CC2)CN[C@H](C(=O)O)C3)n1` (stereo partly drawn) [Example 47, (3S)-8-(2-Amino-6-(1-(2,6-dibromophenyl)-2,2,2-trifluoroethoxy)pyrimidin-4-yl)-2,8-diazaspiro[4.5]decane-3-carboxylic acid] was 0.3 to 3 µM.

Source of the values: US11759462B2, “Spirocyclic compounds as tryptophan hydroxylase inhibitors” (priority 2013, dated 2023).
